Experimental data: PubChem BioAssay (NCI)
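Dose response: 5 concentrations. Exposure: 48 h. Format: 96-well plates. Endpoint: linear interpolation; highest concentration if not reached. TGI marks complete inhibition of growth.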

Key:
Assay in all cases: DTP human tumour cell line panel, 48 h
SF-539 CNS = system: SF-539 CNS
HOP-92 NSCLC = system: HOP-92 NSCLC
NCI-H226 lung = system: NCI-H226 lung
A498 renal = system: A498 renal
HCT-116 colon = system: HCT-116 colon
HL-60(TB) leukemia = system: HL-60(TB) leukemia
SN12C renal = system: SN12C renal
OVCAR-4 ovarian = system: OVCAR-4 ovarian
DU-145 prostate = system: DU-145 prostate
MOLT-4 leukemia = system: MOLT-4 leukemia

Structure (SMILES): CC(C)(C)OC(=O)NC(CSSCC(NC(=O)OC(C)(C)C)C(=O)O)C(=O)O (stereo not given)
- TGI (SF-539 CNS): > 100 µM
- TGI (HOP-92 NSCLC): > 100 µM
- TGI (NCI-H226 lung): > 100 µM
- TGI (A498 renal): > 100 µM
- TGI (HCT-116 colon): > 100 µM
- TGI (HL-60(TB) leukemia): > 100 µM
- TGI (SN12C renal): > 100 µM
- TGI (OVCAR-4 ovarian): > 100 µM
- TGI (DU-145 prostate): > 100 µM
- TGI (MOLT-4 leukemia): > 100 µM

Structure (SMILES): CC(C(=O)COCc1ccccc1)P1(=O)OC(C)(C)CN1C(C)(C)C (stereo not given)
- TGI (SF-539 CNS): > 100 µM
- TGI (HOP-92 NSCLC): > 100 µM
- TGI (NCI-H226 lung): > 100 µM
- TGI (A498 renal): > 100 µM
- TGI (HCT-116 colon): > 100 µM
- TGI (HL-60(TB) leukemia): > 100 µM
- TGI (SN12C renal): > 100 µM
- TGI (OVCAR-4 ovarian): > 100 µM
- TGI (DU-145 prostate): > 100 µM
- TGI (MOLT-4 leukemia): > 100 µM

Structure (SMILES): CCOC(=O)/C(C(C)=O)=C(\OC(C)=O)c1ccncc1C(=O)O
- TGI (SF-539 CNS): > 100 µM
- TGI (HOP-92 NSCLC): > 100 µM
- TGI (NCI-H226 lung): > 100 µM
- TGI (A498 renal): > 100 µM
- TGI (HCT-116 colon): > 100 µM
- TGI (HL-60(TB) leukemia): > 100 µM
- TGI (SN12C renal): > 100 µM
- TGI (OVCAR-4 ovarian): > 100 µM
- TGI (DU-145 prostate): > 100 µM
- TGI (MOLT-4 leukemia): > 100 µM

Structure (SMILES): COc1ccc(C(=O)NCCN(C)C)c2nc3ccccc3cc12
- TGI (SF-539 CNS): 8.16 µM
- TGI (HOP-92 NSCLC): 8.05 µM
- TGI (NCI-H226 lung): 3.26 µM
- TGI (A498 renal): 3.76 µM
- TGI (HCT-116 colon): 5.25 µM
- TGI (HL-60(TB) leukemia): 2.15 µM
- TGI (SN12C renal): 3.28 µM
- TGI (OVCAR-4 ovarian): 6.49 µM
- TGI (DU-145 prostate): 3.85 µM
- TGI (MOLT-4 leukemia): 22.6 µM

Structure (SMILES): O=C(CCSC1=NCCCN1)c1ccc(F)cc1
- TGI (SF-539 CNS): 35.9 µM
- TGI (HOP-92 NSCLC): 40.6 µM
- TGI (NCI-H226 lung): 41.9 µM
- TGI (A498 renal): 44.2 µM
- TGI (HCT-116 colon): 39.3 µM
- TGI (HL-60(TB) leukemia): 30.4 µM
- TGI (SN12C renal): 43.6 µM
- TGI (OVCAR-4 ovarian): > 100 µM
- TGI (DU-145 prostate): 36 µM
- TGI (MOLT-4 leukemia): 7.27 µM

Structure (SMILES): Clc1ccc(C=NC23CC4CC(CC(C4)C2)C3)c(Cl)c1
- TGI (SF-539 CNS): > 10 µM
- TGI (HOP-92 NSCLC): > 10 µM
- TGI (NCI-H226 lung): > 10 µM
- TGI (A498 renal): > 10 µM
- TGI (HCT-116 colon): > 10 µM
- TGI (HL-60(TB) leukemia): > 10 µM
- TGI (SN12C renal): > 10 µM
- TGI (OVCAR-4 ovarian): > 10 µM
- TGI (DU-145 prostate): > 10 µM
- TGI (MOLT-4 leukemia): > 10 µM

Structure (SMILES): O=[N+]([O-])c1cc2oc(CSc3ccccc3)nc2cc1Cl
- TGI (SF-539 CNS): > 100 µM
- TGI (HOP-92 NSCLC): > 100 µM
- TGI (NCI-H226 lung): 91.1 µM
- TGI (A498 renal): 59.2 µM
- TGI (HCT-116 colon): > 100 µM
- TGI (HL-60(TB) leukemia): > 100 µM
- TGI (SN12C renal): > 100 µM
- TGI (OVCAR-4 ovarian): > 100 µM
- TGI (DU-145 prostate): > 100 µM
- TGI (MOLT-4 leukemia): > 100 µM

Structure (SMILES): CN1CC[C@]2(c3cccc(O)c3)CC(=O)/C(=C/c3ccccc3)[C@@H]1C2
- TGI (SF-539 CNS): 6.1 µM
- TGI (HOP-92 NSCLC): 9.93 µM
- TGI (NCI-H226 lung): 31.9 µM
- TGI (A498 renal): 17 µM
- TGI (HCT-116 colon): 5.94 µM
- TGI (HL-60(TB) leukemia): 5.33 µM
- TGI (SN12C renal): 13.6 µM
- TGI (OVCAR-4 ovarian): 16.9 µM
- TGI (DU-145 prostate): 17.5 µM
- TGI (MOLT-4 leukemia): 5.59 µM

Structure (SMILES): N#CC(c1ccccc1)N(CCOCCOCCN(C(=O)c1ccccc1)C(C#N)c1ccccc1)C(=O)c1ccccc1 (stereo not given)
- TGI (SF-539 CNS): > 100 µM
- TGI (HOP-92 NSCLC): > 100 µM
- TGI (NCI-H226 lung): > 100 µM
- TGI (A498 renal): > 100 µM
- TGI (HCT-116 colon): > 100 µM
- TGI (HL-60(TB) leukemia): > 100 µM
- TGI (SN12C renal): > 100 µM
- TGI (OVCAR-4 ovarian): > 100 µM
- TGI (DU-145 prostate): > 100 µM
- TGI (MOLT-4 leukemia): > 100 µM

Structure (SMILES): C[C@@H]1CCC2[C@@H](C)[C@@H](O[C@H]3O[C@@H]4O[C@@]5(C)CCC6[C@H](C)CCC([C@H]3C)[C@]64OO5)O[C@@H]3O[C@@]4(C)CCC1[C@@]23OO4 (stereo not given in full)
- TGI (SF-539 CNS): > 25 µM
- TGI (HOP-92 NSCLC): > 25 µM
- TGI (NCI-H226 lung): > 25 µM
- TGI (A498 renal): > 25 µM
- TGI (HCT-116 colon): > 25 µM
- TGI (HL-60(TB) leukemia): > 5.22 µM
- TGI (SN12C renal): > 25 µM
- TGI (OVCAR-4 ovarian): > 25 µM
- TGI (DU-145 prostate): > 25 µM
- TGI (MOLT-4 leukemia): > 25 µM

Structure (SMILES): CCN(C(=O)N[C@@H](C)C(=O)N[C@@H](Cc1ccccc1)C(=O)OC)c1ccccc1
- TGI (SF-539 CNS): > 100 µM
- TGI (HOP-92 NSCLC): 68 µM
- TGI (NCI-H226 lung): > 100 µM
- TGI (A498 renal): > 100 µM
- TGI (HCT-116 colon): > 100 µM
- TGI (HL-60(TB) leukemia): > 100 µM
- TGI (SN12C renal): 73.2 µM
- TGI (OVCAR-4 ovarian): > 100 µM
- TGI (DU-145 prostate): > 100 µM
- TGI (MOLT-4 leukemia): > 100 µM

Structure (SMILES): OCCCc1ccc2c(c1)[C@H](CO)[C@@H](c1ccc(O)cc1)O2
- TGI (SF-539 CNS): > 100 µM
- TGI (HOP-92 NSCLC): > 100 µM
- TGI (NCI-H226 lung): > 100 µM
- TGI (A498 renal): > 100 µM
- TGI (HCT-116 colon): > 100 µM
- TGI (HL-60(TB) leukemia): > 100 µM
- TGI (SN12C renal): > 100 µM
- TGI (OVCAR-4 ovarian): 30.4 µM
- TGI (DU-145 prostate): > 100 µM
- TGI (MOLT-4 leukemia): > 100 µM

Structure (SMILES): CC(C)(CO)CNc1nc(N)nc(Cl)c1/C=N/O
- TGI (SF-539 CNS): > 100 µM
- TGI (HOP-92 NSCLC): 84.7 µM
- TGI (NCI-H226 lung): > 100 µM
- TGI (A498 renal): > 100 µM
- TGI (HCT-116 colon): > 100 µM
- TGI (HL-60(TB) leukemia): > 100 µM
- TGI (SN12C renal): > 100 µM
- TGI (OVCAR-4 ovarian): > 100 µM
- TGI (DU-145 prostate): > 100 µM
- TGI (MOLT-4 leukemia): > 100 µM
